Values quoted from earlier work as cited in PMC10797624, “Multitracer Approach to Understanding the Complexity of Reactive Astrogliosis in Alzheimer’s Brains” (ACS Chemical Neuroscience, 2023).

How the values were obtained:
[1] = tested on: [^3H]-BU99008 binding sites; design: method as in PMID 33888872; conditions: L-deprenyl vs [^3H]-BU99008
MAO-B = tested on: MAO-B; design: method as in PMID 32646880; conditions: small brain section autoradiography

**Q.** Which “binding sites and affinities vs [^3H]-BU99008” value [1] does the source give for `C#CCN(C)[C@H](C)Cc1ccccc1` [L-deprenyl] here?
**A.** The value was “multiple binding sites with pico- and micromolar affinities”.

**Q.** For `NCCNC(=O)c1ccc(Cl)cn1` [lazabemide], which “displacement of [^18F]-SMBT-1 binding” value (MAO-B) is on record?
**A.** Its value is “fully displaced”.
